Tests used:
[1] = system: chickweed; experiment: Test B preemergence/postemergence greenhouse plant response rating 0 to 10; format: in vivo, Stellaria media; settings: 0 to 10 scale
Outline: (§1)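 Planted seeds are treated preemergence with compound dissolved in a non-phytotoxic solvent, while postemergence applications go onto plants of two to eighteen cm. Plants stay in the greenhouse twelve to sixteen days and are then rated visually relative to controls.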

[2] = system: wild oat; experiment: as above; format: in vivo, Avena fatua; settings: 0 to 10 scale
Outline: as §1

[3] = system: downy brome; experiment: Test C preemergence/postemergence greenhouse plant response rating 0 to 100; format: in vivo, Bromus tectorum; settings: for Plant response rating Downy Brome: 62 g/ha, 0 to 100 scale
Outline: (§2)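 Compounds in non-phytotoxic solvent applied preemergence to sandy loam one day after planting, postemergence at the 1–4 leaf stage, or to ~2.5 cm floodwater over silt loam.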

[4] = system: chickweed; experiment: as above; format: in vivo, Stellaria media; settings: for Plant response rating, Chickweed: 62 g/ha, 0 to 100 scale
Outline: as §2

[5] = system: lambsquarters; experiment: as above; format: in vivo, Chenopodium album; settings: for Plant response rating Lambsquarters: 62 g/ha, 0 to 100 scale
Outline: as §2

[6] = system: corn; experiment: Test B preemergence/postemergence greenhouse plant response rating 0 to 10; format: in vivo, Zea mays; settings: 0 to 10 scale
Outline: as §1

[7] = system: wild buckwheat; experiment: Test C preemergence/postemergence greenhouse plant response rating 0 to 100; format: in vivo, Polygonum convolvulus
Outline: as §2

[8] = system: soybean; experiment: as above; format: in vivo, Glycine max
Outline: as §2

[9] = system: barley; experiment: as above; format: in vivo, Hordeum vulgare; settings: for Plant response rating Barley Igri: 62 g/ha, 0 to 100 scale
Outline: as §2

[10] = system: sugar beet; experiment: as above; format: in vivo, Beta vulgaris
Outline: as §2

[11] = system: giant foxtail; experiment: Test B preemergence/postemergence greenhouse plant response rating 0 to 10; format: in vivo, Setaria faberii; settings: 0 to 10 scale
Outline: as §1

[12] = system: ryegrass; experiment: Test C preemergence/postemergence greenhouse plant response rating 0 to 100; format: in vivo, Lolium multiflorum; settings: for Plant response rating Ryegrass: 62 g/ha, 0 to 100 scale
Outline: as §2

[13] = system: sorghum; experiment: Test B preemergence/postemergence greenhouse plant response rating 0 to 10; format: in vivo, Sorghum bicolor; settings: 0 to 10 scale
Outline: as §1

[14] = system: cotton; experiment: Test C preemergence/postemergence greenhouse plant response rating 0 to 100; format: in vivo, Gossypium hirsutum; settings: for Plant response rating, Cotton: 62 g/ha, 0 to 100 scale
Outline: as §2

[15] = system: duck salad; experiment: Test C flood test plant response rating 0 to 100; format: in vivo, Heteranthera limosa
Outline: as §2

[16] = system: cheatgrass; experiment: Test B preemergence/postemergence greenhouse plant response rating 0 to 10; format: in vivo, Bromus secalinus; settings: 0 to 10 scale
Outline: as §1

[17] = system: wild buckwheat; experiment: as above; format: in vivo, Polygonum convolvulus; settings: 0 to 10 scale
Outline: as §1

[18] = system: velvetleaf; experiment: Test C preemergence/postemergence greenhouse plant response rating 0 to 100; format: in vivo, Abutilon theophrasti
Outline: as §2

[19] = POSTEMERGENCE, 62 g/ha, 0 to 100 scale

CCN1C(=O)COc2cc(F)c(-c3nn4c(c3Cl)CCCC4)cc21 [Compound 54]
35: Plant response rating (0 to 100), Duck salad ([15]; Rate 16 g/ha, under POSTEMERGENCE head (flood test species))
85: Plant response rating (0 to 100), Soybean ([8]; Rate 16 g/ha, POSTEMERGENCE)
30: Plant response rating (0 to 100), Downy Brome ([3]; POSTEMERGENCE, Rate 4 g/ha) | Plant response rating Downy Brome ([3]; PREEMERGENCE) | Plant response rating (0 to 100), Barley Igri ([9]; POSTEMERGENCE, Rate 1 g/ha) | Plant response rating (0 to 100), Ryegrass ([12]; POSTEMERGENCE, Rate 4 g/ha) | Plant response rating (0 to 100), Ryegrass ([12]; Rate 16 g/ha, PREEMERGENCE)
60: Plant response rating Downy Brome ([3]; POSTEMERGENCE) | Plant response rating (0 to 100), Chickweed ([4]; POSTEMERGENCE, Rate 1 g/ha) | Plant response rating (0 to 100), Lambsquarters ([5]; PREEMERGENCE, Rate 4 g/ha) | Plant response rating Ryegrass ([12]; POSTEMERGENCE)
4: Plant response rating, Wild oat ([2]; POSTEMERGENCE, Rate 10 g/ha) | Plant response rating, Giant foxtail ([11]; POSTEMERGENCE, Rate 10 g/ha) | Plant response rating, Giant foxtail ([11]; POSTEMERGENCE, Rate 50 g/ha)
0: Plant response rating (0 to 100), Downy Brome ([3]; PREEMERGENCE, Rate 1 g/ha) | Plant response rating (0 to 100), Downy Brome ([3]; PREEMERGENCE, Rate 4 g/ha) | Plant response rating (0 to 100), Chickweed ([4]; PREEMERGENCE, Rate 1 g/ha) | Plant response rating (0 to 100), Chickweed ([4]; PREEMERGENCE, Rate 4 g/ha) | Plant response rating (0 to 100), Lambsquarters ([5]; PREEMERGENCE, Rate 1 g/ha) | Plant response rating, Corn ([6]; PREEMERGENCE, Rate 50 g/ha) | Plant response rating (0 to 100), Wild buckwheat ([7]; PREEMERGENCE, Rate 1 g/ha) | Plant response rating (0 to 100), Wild buckwheat ([7]; PREEMERGENCE, Rate 4 g/ha) | Plant response rating (0 to 100), Soybean ([8]; PREEMERGENCE, Rate 1 g/ha) | Plant response rating (0 to 100), Soybean ([8]; PREEMERGENCE, Rate 4 g/ha) | Plant response rating (0 to 100), Soybean ([8]; Rate 16 g/ha, PREEMERGENCE) | Plant response rating (0 to 100), Barley Igri ([9]; PREEMERGENCE, Rate 1 g/ha) | Plant response rating (0 to 100), Barley Igri ([9]; PREEMERGENCE, Rate 4 g/ha) | Plant response rating (0 to 100), Barley Igri ([9]; Rate 16 g/ha, PREEMERGENCE) | Plant response rating (0 to 100), Sugar beet ([10]; PREEMERGENCE, Rate 1 g/ha) | Plant response rating, Giant foxtail ([11]; PREEMERGENCE, Rate 10 g/ha) | Plant response rating (0 to 100), Ryegrass ([12]; PREEMERGENCE, Rate 1 g/ha) | Plant response rating (0 to 100), Ryegrass ([12]; PREEMERGENCE, Rate 4 g/ha) | Plant response rating (0 to 100), Cotton ([14]; PREEMERGENCE, Rate 1 g/ha) | Plant response rating (0 to 100), Cotton ([14]; PREEMERGENCE, Rate 4 g/ha) | Plant response rating (0 to 100), Cotton ([14]; Rate 16 g/ha, PREEMERGENCE) | Plant response rating (0 to 100), Duck salad ([15]; POSTEMERGENCE section, flood test, Rate 1 g/ha) | Plant response rating (0 to 100), Duck salad ([15]; POSTEMERGENCE section, flood test, Rate 4 g/ha) | Plant response rating (0 to 100), Velvetleaf ([18]; PREEMERGENCE, Rate 1 g/ha) | Plant response rating (0 to 100), Velvetleaf ([18]; PREEMERGENCE, Rate 4 g/ha)
50: Plant response rating (0 to 100), Downy Brome ([3]; Rate 16 g/ha, POSTEMERGENCE) | Plant response rating (0 to 100), Lambsquarters ([5]; POSTEMERGENCE, Rate 4 g/ha) | Plant response rating (0 to 100), Soybean ([8]; POSTEMERGENCE, Rate 1 g/ha) | Plant response rating Barley Igri ([9]; POSTEMERGENCE) | Plant response rating (0 to 100), Barley Igri ([9]; Rate 16 g/ha, POSTEMERGENCE)
8: Plant response rating, Giant foxtail ([11]; PREEMERGENCE, Rate 50 g/ha)
65: Plant response rating (0 to 100), Soybean ([8]; POSTEMERGENCE, Rate 4 g/ha)
75: Plant response rating (0 to 100), Chickweed ([4]; POSTEMERGENCE, Rate 4 g/ha) | Plant response rating (0 to 100), Lambsquarters ([5]; Rate 16 g/ha, POSTEMERGENCE)
95: Plant response rating, Soybean [8, 19] | Plant response rating (0 to 100), Cotton ([14]; POSTEMERGENCE, Rate 4 g/ha)
100: Plant response rating, Chickweed ([4]; POSTEMERGENCE) | Plant response rating, Chickweed ([4]; PREEMERGENCE) | Plant response rating (0 to 100), Chickweed ([4]; Rate 16 g/ha, POSTEMERGENCE) | Plant response rating Lambsquarters ([5]; POSTEMERGENCE) | Plant response rating Lambsquarters ([5]; PREEMERGENCE) | Plant response rating (0 to 100), Lambsquarters ([5]; Rate 16 g/ha, PREEMERGENCE) | Plant response rating, Wild buckwheat [7, 19] | Plant response rating (0 to 100), Wild buckwheat ([7]; POSTEMERGENCE, Rate 1 g/ha) | Plant response rating (0 to 100), Wild buckwheat ([7]; POSTEMERGENCE, Rate 4 g/ha) | Plant response rating (0 to 100), Wild buckwheat ([7]; Rate 16 g/ha, POSTEMERGENCE) | Plant response rating (0 to 100), Wild buckwheat ([7]; Rate 16 g/ha, PREEMERGENCE) | Plant response rating, Sugar beet [10, 19] | Plant response rating (0 to 100), Sugar beet ([10]; POSTEMERGENCE, Rate 1 g/ha) | Plant response rating (0 to 100), Sugar beet ([10]; POSTEMERGENCE, Rate 4 g/ha) | Plant response rating (0 to 100), Sugar beet ([10]; Rate 16 g/ha, POSTEMERGENCE) | Plant response rating (0 to 100), Sugar beet ([10]; Rate 16 g/ha, PREEMERGENCE) | Plant response rating, Cotton ([14]; POSTEMERGENCE) | Plant response rating (0 to 100), Cotton ([14]; Rate 16 g/ha, POSTEMERGENCE) | Plant response rating Duck salad ([15]; flood test species listed under POSTEMERGENCE, 62 g/ha, 0 to 100 scale) | Plant response rating, Velvetleaf [18, 19] | Plant response rating (0 to 100), Velvetleaf ([18]; POSTEMERGENCE, Rate 4 g/ha) | Plant response rating (0 to 100), Velvetleaf ([18]; Rate 16 g/ha, POSTEMERGENCE)
3: Plant response rating, Corn ([6]; POSTEMERGENCE, Rate 10 g/ha) | Plant response rating, Corn ([6]; POSTEMERGENCE, Rate 50 g/ha) | Plant response rating, Sorghum ([13]; POSTEMERGENCE, Rate 10 g/ha) | Plant response rating, Sorghum ([13]; POSTEMERGENCE, Rate 50 g/ha) | Plant response rating, Cheatgrass ([16]; PREEMERGENCE, Rate 50 g/ha)
9: Plant response rating, Chickweed ([1]; PREEMERGENCE, Rate 10 g/ha)
40: Plant response rating (0 to 100), Barley Igri ([9]; POSTEMERGENCE, Rate 4 g/ha) | Plant response rating (0 to 100), Ryegrass ([12]; Rate 16 g/ha, POSTEMERGENCE) | Plant response rating, Cotton ([14]; PREEMERGENCE)
70: Plant response rating Ryegrass ([12]; PREEMERGENCE) | Plant response rating (0 to 100), Cotton ([14]; POSTEMERGENCE, Rate 1 g/ha) | Plant response rating (0 to 100), Velvetleaf ([18]; POSTEMERGENCE, Rate 1 g/ha)
7: Plant response rating, Wild oat ([2]; POSTEMERGENCE, Rate 50 g/ha) | Plant response rating, Cheatgrass ([16]; POSTEMERGENCE, Rate 50 g/ha)
80: Plant response rating (0 to 100), Velvetleaf ([18]; Rate 16 g/ha, PREEMERGENCE)
10: Plant response rating, Chickweed ([1]; POSTEMERGENCE, Rate 50 g/ha) | Plant response rating, Chickweed ([1]; PREEMERGENCE, Rate 50 g/ha) | Plant response rating (0 to 100), Downy Brome ([3]; POSTEMERGENCE, Rate 1 g/ha) | Plant response rating (0 to 100), Lambsquarters ([5]; POSTEMERGENCE, Rate 1 g/ha) | Plant response rating Barley Igri ([9]; PREEMERGENCE) | Plant response rating (0 to 100), Sugar beet ([10]; PREEMERGENCE, Rate 4 g/ha) | Plant response rating (0 to 100), Ryegrass ([12]; POSTEMERGENCE, Rate 1 g/ha) | Plant response rating, Wild buckwheat ([17]; POSTEMERGENCE, Rate 10 g/ha) | Plant response rating, Wild buckwheat ([17]; POSTEMERGENCE, Rate 50 g/ha) | Plant response rating, Wild buckwheat ([17]; PREEMERGENCE, Rate 50 g/ha)
2: Plant response rating, Wild oat ([2]; PREEMERGENCE, Rate 50 g/ha)
20: Plant response rating (0 to 100), Downy Brome ([3]; Rate 16 g/ha, PREEMERGENCE) | Plant response rating (0 to 100), Chickweed ([4]; Rate 16 g/ha, PREEMERGENCE)
5: Plant response rating, Cheatgrass ([16]; POSTEMERGENCE, Rate 10 g/ha)
1: Plant response rating, Sorghum ([13]; PREEMERGENCE, Rate 50 g/ha) | Plant response rating, Cheatgrass ([16]; PREEMERGENCE, Rate 10 g/ha)

From patent US6358885B1, “Substituted phenylheterocyclic herbicides” (Mississippi State University, priority 1992, dated 2002)
